Assay: Dissolution (release) rate of the ingredients of a solid water treatment tablet in standard cooling water
Type: physicochemical
Parameters: key: *: value was below detection limits for this moiety
Source text: After the solid water treatment product has been formed it must be tested to determine its dissolution rate in water. Test water that is formulated to closely match the type of water found in the industrial water system of interest is provided. For example, “standard” test water for cooling water in a cooling tower typically has the following features: 60 ppm Ca^2+, 18 ppm Mg^2+, 134 ppm HCO3^−, 53 ppm Cl^− and 72 ppm SO4^2−. A typical scale formation test for a model or simulation boiler typically has these concentrations of scaling contaminants in the boiler water; 10 ppm Calcium as CaCO3, 5 ppm Magnesium as CaCO3, 5 ppm silica as SiO2. Alkalinity such as caustic (NaOH) is added in sufficient quantity to maintain a pH of typically between 10.0 and 11.0 in the boiler water.
In order to determine the dissolution rate of the solid water treatment product the solid water treatment product is placed in the test water and allowed to dissolve. A fluorometer is provided and the fluorescent signal of the Fluorescent Tracer present in the solid water treatment product is measured using the fluorometer. The fluorescent signal is measured at regular intervals.
A tablet of solid cooling water treatment product of Formulation 1, {27.6% benzotriazole, 70.4% 1-hydroxyethylidene-1,1-diphosphonic acid and 2% 1,3,6,8-pyrenetetrasulfonic acid, sodium salt} is made. The tablet weighs 0.9081 grams. The tablet is placed in standard cooling water {60 ppm Ca^2+, 18 ppm Mg^2+, 134 ppm […] , 53 ppm Cl^31 and 72 ppm SO4^2−} and the dissolution rate of each ingredient in the table is measured. The dissolution rate of each ingredient present is measured using analytical techniques suitable for analyzing for each ingredient. The dissolution rate of the benzotriazole (abbreviated “BZT”) is measured using fluorometric analytical techniques, known in the art of analyzing triazoles. The dissolution rate of 1-hydroxyethylidene-1,1-diphosphonic acid (abbreviated “HEDP”) is measured using standard “colorimetric determination” analytical techniques, known in the art of analyzing for diphosphonic acids. The dissolution rate of the 1,3,6,8-pyrenetetrasulfonic acid, sodium salt (abbreviated “PTSA”) is measured using fluorometric analytical techniques.
The results of this test are shown in Table 1 Release rates for each ingredient are given in milligrams (‘mg”) per minute (“min.”).
The same tablet was made as was made in Example 1, except that this time, the tablet was coated with a polyethylene oxide material with a molecular weight of approximately 15,000 such that the final weight of finished tablet was 1.411 grams. The dissolution rate of the three ingredients in this tablet were determined, using the same analytical techniques as in Example 1.

[1] = Example 1 uncoated tablet of Formulation 1 (0.9081 g), standard cooling water, time 0 minutes
[2] = Example 1 uncoated tablet of Formulation 1, standard cooling water, time 1 minutes
[3] = Example 1 uncoated tablet of Formulation 1, standard cooling water, time 5 minutes
[4] = Example 1 uncoated tablet of Formulation 1, standard cooling water, time 10 minutes
[5] = Example 1 uncoated tablet of Formulation 1, standard cooling water, time 15 minutes
[6] = Example 1 uncoated tablet of Formulation 1, standard cooling water, time 30 minutes
[7] = Example 1 uncoated tablet of Formulation 1, standard cooling water, time 60 minutes
[8] = Example 1 uncoated tablet of Formulation 1, standard cooling water, time 130 minutes
[9] = Example 2 tablet coated with polyethylene oxide (1.411 g), time 0 minutes
[10] = Example 2 tablet coated with polyethylene oxide, time 5 minutes
[11] = Example 2 tablet coated with polyethylene oxide, time 15 minutes
[12] = Example 2 tablet coated with polyethylene oxide, time 30 minutes
[13] = Example 2 tablet coated with polyethylene oxide, time 40 minutes
[14] = Example 2 tablet coated with polyethylene oxide, time 50 minutes
[15] = Example 2 tablet coated with polyethylene oxide, time 61 minutes, in mg/min
[16] = Example 2 tablet coated with polyethylene oxide, time 75 minutes, in mg/min
[17] = Example 2 tablet coated with polyethylene oxide, time 110 minutes, in mg/min
[18] = Example 2 tablet coated with polyethylene oxide, time 180 minutes, in mg/min

Release Rate [1] | Release Rate [2] | Release Rate [3] [mg per min.] | Release Rate [4] [mg per min.] | Release Rate [5] [mg per min.] | Release Rate [6] [mg per min.] | Release Rate [7] | Release Rate [8] | Release Rate [9] | Release Rate [10] | Release Rate [11] | Release Rate [12] | Release Rate [13] [mg/min] | Release Rate [14] [mg/min] | Release Rate [15] | Release Rate [16] | Release Rate [18] | Structure (SMILES) | Release Rate [17] | further results
* | * | 8.75 | 13.8 | 11.4 | 2.167 | 0.5 mg per min. | 0.493 mg per min. | * | * | * | * | 0.2 | 2.6 | 5.545 | 4.393 | 0.236 | c1ccc2[nH]nnc2c1 [BZT, benzotriazole] | 0.829 | –
* | * | 10.5 | 20 | 11.4 | 0.933 | 1.03 mg per min. | 0.0143 mg per min. | * | * | * | * | 1.2 | 2.55 | 8.091 | 4.893 | 0.329 | CC(O)(P(=O)(O)O)P(=O)(O)O [HEDP, 1-hydroxyethylidene-1,1-diphosphonic acid] | – | Release Rate (Example 2 tablet coated with polyethylene oxide, time 110 minutes): 1.7 mg/min

Structure (SMILES) | Release Rate [1] | Release Rate [2] | Release Rate [3] [mg per min.] | Release Rate [4] [mg per min.] | Release Rate [5] [mg per min.] | Release Rate [6] [mg per min.] | Release Rate [7] | Release Rate [8] | Release Rate [9] | Release Rate [10] | Release Rate [11] | Release Rate [12] | Release Rate [13] [mg/min] | Release Rate [14] [mg/min] | Release Rate [15] | Release Rate [16] | Release Rate [18] | Release Rate [17] | further results
O=S(=O)([O-])c1cc(S(=O)(=O)[O-])c2ccc3c(S(=O)(=O)[O-])cc(S(=O)(=O)[O-])c4ccc1c2c43.[Na+].[Na+].[Na+].[Na+] [PTSA, 1,3,6,8-pyrenetetrasulfonic acid, sodium salt] | * | * | 0.5925 | 0.98 | 0.5 | 0.143 | * | * | * | * | * | * | – | – | – | 0.190 | 0.00493 | 0.0571 | Release Rate (Example 2 tablet coated with polyethylene oxide, time 40 minutes, in mg/min): 0.052; Release Rate (Example 2 tablet coated with polyethylene oxide, time 50 minutes, in mg/min): 0.121; Release Rate (Example 2 tablet coated with polyethylene oxide, time 61 minutes): 0.33 mg/min

Reference: patent US6685840B2, “Method for determining the dissolution rate of a solid water treatment product” (Ondeo Nalco Company, priority 2002, dated 2004)
